Legend:
[1] = target: Tyrosine-protein kinase JAK1 (Homo sapiens, UniProt P23458); assay: Selectivity interaction (Kinase panel (Z-LYTE Assay)) EUB0001632a JAK1; conditions: at 10 µM
[2] = target: T1, Tyrosine-protein kinase TXK (Homo sapiens) (UniProt P42681); assay: Selectivity interaction (KinomeScan (DiscoverX)) EUB0000666a TXK; conditions: at 10 µM
T1 sequence (whole entry): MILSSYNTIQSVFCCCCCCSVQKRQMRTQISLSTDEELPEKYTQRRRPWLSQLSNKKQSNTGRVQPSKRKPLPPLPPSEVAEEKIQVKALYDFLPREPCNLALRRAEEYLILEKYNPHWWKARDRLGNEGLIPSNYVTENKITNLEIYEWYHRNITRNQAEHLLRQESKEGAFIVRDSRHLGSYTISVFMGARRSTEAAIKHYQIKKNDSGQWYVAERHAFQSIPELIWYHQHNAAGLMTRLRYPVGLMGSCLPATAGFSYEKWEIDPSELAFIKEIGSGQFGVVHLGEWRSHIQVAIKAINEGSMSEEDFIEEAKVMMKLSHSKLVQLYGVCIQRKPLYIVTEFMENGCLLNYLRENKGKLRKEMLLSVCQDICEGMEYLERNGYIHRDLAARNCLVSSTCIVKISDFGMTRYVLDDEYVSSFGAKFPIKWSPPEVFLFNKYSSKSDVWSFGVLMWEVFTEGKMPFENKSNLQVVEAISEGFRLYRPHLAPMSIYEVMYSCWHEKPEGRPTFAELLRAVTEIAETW

[3] = target: T2, Protein kinase C zeta type (Homo sapiens) (UniProt Q05513); assay: Selectivity interaction (ProQinase) EUB0000171b PRKCZ; conditions: at 1 µM
T2 sequence (whole entry): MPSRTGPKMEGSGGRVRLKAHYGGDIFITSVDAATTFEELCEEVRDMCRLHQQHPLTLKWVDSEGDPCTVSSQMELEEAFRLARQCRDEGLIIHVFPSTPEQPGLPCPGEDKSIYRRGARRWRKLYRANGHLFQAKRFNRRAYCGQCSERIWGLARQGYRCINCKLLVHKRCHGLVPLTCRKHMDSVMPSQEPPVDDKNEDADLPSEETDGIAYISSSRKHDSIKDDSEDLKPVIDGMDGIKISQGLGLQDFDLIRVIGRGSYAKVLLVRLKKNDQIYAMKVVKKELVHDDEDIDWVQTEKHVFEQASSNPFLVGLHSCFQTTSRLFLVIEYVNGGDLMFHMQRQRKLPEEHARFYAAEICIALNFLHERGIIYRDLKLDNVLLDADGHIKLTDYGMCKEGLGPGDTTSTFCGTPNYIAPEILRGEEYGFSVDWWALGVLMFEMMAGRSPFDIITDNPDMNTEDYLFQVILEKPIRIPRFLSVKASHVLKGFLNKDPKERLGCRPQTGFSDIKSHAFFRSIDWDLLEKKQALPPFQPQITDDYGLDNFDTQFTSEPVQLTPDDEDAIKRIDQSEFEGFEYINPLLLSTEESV

[4] = target: T3, MAP/microtubule affinity-regulating kinase 4 (Homo sapiens) (UniProt Q96L34); assay: Selectivity interaction (KinomeScan (DiscoverX)) EUB0000695a MARK4; conditions: at 100 nM
T3 sequence (whole entry): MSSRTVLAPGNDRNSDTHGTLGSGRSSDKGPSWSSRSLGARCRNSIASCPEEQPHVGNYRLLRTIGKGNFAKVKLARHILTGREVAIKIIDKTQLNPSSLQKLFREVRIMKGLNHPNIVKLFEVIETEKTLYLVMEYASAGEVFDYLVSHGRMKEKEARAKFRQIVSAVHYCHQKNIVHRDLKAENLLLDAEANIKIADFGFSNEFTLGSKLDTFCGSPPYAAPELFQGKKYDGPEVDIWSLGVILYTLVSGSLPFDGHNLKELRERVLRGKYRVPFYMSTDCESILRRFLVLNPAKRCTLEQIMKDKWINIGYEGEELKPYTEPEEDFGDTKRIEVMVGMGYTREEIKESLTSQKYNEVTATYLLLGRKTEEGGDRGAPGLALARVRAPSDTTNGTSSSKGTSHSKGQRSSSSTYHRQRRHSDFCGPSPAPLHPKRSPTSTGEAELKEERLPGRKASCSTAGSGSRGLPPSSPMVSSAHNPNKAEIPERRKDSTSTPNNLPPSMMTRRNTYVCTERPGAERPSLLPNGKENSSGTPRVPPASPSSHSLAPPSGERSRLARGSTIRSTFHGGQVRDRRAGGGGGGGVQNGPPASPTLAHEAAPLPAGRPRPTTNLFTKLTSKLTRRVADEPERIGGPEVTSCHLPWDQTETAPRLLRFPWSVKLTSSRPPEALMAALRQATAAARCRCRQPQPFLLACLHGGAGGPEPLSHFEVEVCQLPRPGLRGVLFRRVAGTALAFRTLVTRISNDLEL

[5] = target: Glycogen synthase kinase-3 alpha (Homo sapiens, UniProt P49840); assay: Selectivity interaction (KinomeScan (DiscoverX)) EUB0000655a GSK3A; conditions: at 10 µM
Glycogen synthase kinase-3 alpha, sequence (P49840 2-483 limits assumed): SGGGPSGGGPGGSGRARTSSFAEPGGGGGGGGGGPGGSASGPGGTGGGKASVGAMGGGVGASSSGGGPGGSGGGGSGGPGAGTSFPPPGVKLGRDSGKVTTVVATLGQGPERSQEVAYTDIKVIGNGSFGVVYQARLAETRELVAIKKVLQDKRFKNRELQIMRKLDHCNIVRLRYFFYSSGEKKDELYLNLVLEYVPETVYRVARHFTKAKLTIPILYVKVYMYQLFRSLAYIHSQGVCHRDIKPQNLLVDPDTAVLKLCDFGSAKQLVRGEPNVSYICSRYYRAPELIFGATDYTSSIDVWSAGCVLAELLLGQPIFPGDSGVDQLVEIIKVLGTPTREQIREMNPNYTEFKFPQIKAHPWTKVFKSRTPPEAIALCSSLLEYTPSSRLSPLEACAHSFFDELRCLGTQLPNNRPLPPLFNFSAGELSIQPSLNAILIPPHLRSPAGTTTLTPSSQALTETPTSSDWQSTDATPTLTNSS

[6] = target: Protein kinase C theta type (Homo sapiens, UniProt Q04759); assay: Selectivity interaction (KinomeScan (DiscoverX)) EUB0000655a PRKCQ; conditions: at 10 µM
Protein kinase C theta type, sequence (Q04759 whole entry, looked up): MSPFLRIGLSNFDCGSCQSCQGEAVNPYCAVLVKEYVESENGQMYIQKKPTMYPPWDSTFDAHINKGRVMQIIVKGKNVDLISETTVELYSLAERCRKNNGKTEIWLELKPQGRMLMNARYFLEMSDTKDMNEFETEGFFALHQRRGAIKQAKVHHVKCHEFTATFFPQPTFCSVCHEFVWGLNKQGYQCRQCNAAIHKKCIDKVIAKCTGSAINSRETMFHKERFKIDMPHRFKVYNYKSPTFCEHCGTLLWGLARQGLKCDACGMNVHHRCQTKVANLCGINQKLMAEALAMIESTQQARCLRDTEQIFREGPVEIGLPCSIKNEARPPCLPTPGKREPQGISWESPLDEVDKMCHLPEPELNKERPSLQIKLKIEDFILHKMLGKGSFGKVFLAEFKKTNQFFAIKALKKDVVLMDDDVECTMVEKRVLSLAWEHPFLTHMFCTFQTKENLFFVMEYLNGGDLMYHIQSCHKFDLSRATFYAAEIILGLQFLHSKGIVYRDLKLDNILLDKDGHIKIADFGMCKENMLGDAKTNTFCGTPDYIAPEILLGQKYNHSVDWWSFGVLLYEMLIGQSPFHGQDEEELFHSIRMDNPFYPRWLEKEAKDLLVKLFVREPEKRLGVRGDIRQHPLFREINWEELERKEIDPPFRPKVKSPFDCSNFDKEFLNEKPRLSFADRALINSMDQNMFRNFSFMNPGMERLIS

[7] = target: Cyclin-dependent kinase 8 (Homo sapiens, UniProt P49336); assay: Selectivity interaction (KinomeScan (DiscoverX)) EUB0000092b CDK8; conditions: at 10 µM
Cyclin-dependent kinase 8, sequence (P49336 whole entry): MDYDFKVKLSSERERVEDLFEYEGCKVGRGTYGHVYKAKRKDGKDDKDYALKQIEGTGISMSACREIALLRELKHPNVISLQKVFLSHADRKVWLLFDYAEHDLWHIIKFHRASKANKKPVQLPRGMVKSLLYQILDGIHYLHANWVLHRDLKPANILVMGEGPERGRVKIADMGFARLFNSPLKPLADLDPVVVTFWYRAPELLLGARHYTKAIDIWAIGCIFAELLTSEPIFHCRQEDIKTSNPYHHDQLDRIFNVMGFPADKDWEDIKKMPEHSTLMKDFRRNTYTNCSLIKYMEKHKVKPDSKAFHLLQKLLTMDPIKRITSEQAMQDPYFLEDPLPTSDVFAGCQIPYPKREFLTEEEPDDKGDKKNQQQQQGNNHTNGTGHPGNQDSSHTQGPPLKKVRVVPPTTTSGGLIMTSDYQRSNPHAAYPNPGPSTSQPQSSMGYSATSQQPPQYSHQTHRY

Tyrosine-protein kinase JAK1, sequence (P23458 whole entry): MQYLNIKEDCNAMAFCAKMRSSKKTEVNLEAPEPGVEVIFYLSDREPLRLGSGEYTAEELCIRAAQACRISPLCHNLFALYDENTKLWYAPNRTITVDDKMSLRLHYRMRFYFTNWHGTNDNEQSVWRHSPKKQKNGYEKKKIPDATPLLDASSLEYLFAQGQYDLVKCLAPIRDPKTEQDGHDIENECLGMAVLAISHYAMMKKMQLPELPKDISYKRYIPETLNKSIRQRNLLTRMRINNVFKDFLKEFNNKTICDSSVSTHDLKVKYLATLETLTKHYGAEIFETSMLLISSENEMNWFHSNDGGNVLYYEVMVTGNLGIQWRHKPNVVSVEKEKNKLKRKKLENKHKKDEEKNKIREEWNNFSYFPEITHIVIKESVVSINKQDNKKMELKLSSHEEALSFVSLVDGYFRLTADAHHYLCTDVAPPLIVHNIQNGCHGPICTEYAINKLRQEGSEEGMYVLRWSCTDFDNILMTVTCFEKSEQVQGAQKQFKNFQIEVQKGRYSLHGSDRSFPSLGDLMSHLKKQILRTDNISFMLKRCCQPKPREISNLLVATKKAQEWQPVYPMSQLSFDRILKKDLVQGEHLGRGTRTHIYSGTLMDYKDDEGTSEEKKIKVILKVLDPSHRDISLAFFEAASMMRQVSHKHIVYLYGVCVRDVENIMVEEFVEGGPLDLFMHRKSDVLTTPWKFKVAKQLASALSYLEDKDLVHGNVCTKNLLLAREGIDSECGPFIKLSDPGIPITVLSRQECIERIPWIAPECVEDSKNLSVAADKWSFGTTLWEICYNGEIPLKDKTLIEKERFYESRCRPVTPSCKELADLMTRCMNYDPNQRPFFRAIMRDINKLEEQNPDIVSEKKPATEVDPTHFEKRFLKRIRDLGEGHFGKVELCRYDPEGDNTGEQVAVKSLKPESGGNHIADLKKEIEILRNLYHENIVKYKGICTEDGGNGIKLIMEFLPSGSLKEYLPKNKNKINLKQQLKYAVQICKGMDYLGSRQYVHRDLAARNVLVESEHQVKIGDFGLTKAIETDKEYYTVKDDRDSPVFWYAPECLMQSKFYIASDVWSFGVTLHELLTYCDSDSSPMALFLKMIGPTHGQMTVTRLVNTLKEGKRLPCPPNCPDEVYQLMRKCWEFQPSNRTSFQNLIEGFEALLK

Cn1cc(-n2cnc3c(NCc4nc5cc(Cl)c(Cl)cc5[nH]4)nc(N4CCOCC4)nc32)cn1
% of control [1]: -3.66%

O=C(NOC[C@H](O)CO)c1ccc(F)c(F)c1Nc1ccc(I)cc1F
% of control [2]: 100%

C=CC(=O)Nc1cccc(C(=O)Nc2ccc(Nc3cc(-c4[nH]c(SC)nc4C)ccn3)cc2)c1
% of control [3]: 90%

Cc1cc(F)c(C(=O)Nc2cccc(-c3nncn3C(C)C)n2)cc1-n1cnc(C2CC2)c1
% of control [4]: 100%

CN(C)CCOc1ccc(-c2nc(-c3ccncc3)c(-c3ccc4c(c3)CC/C4=N\O)[nH]2)cc1
% of control [5]: 100% | % of control [6]: 81%

CCC(=O)N1CCN(c2ccc(-n3c(=O)ccc4cnc5ccc(-c6cnc7ccccc7c6)cc5c43)cc2C(F)(F)F)CC1
% of control [7]: 4.6%
